How the values were obtained:
Format in all cases: biochemical
[1] = molecular target: catalytic domain of human MMP-2 (Homo sapiens, UniProt P08253); assay: MMP-2 fluorogenic inhibition assay; settings: read-out: Calculated Ki(nM) MMP-2
Description: (§1) All enzymes were pre-activated at 37° C. with aminophenylmercuric acetate (APMA) or trypsin before being made up to the final concentrations used in the assay.
(§2) For MMP-1, the assay buffer used was 50 mM Tris, 200 mM NaCl, 5 mM CaCl2, 20 μM ZnCl2, 0.05% (w/v) Brij 35, pH 7.5. […] For MMP-13, the assay buffer used was 50 mM Tris, pH 7.5, 200 mM NaCl, 5 mM CaCl2, […] and 0.02% (w/v) Brij 35.
(§3) MMP-2, MMP-3 and MMP-9 inhibition was assayed by incubating activated catalytic domain of human MMP-2, MMP-3 and MMP-9 at 1 nM in assay buffer with 5 μM substrate Mca-Arg-Pro-Lys-Pro-Tyr-Ala-Nva-Trp-Met-Lys(Dnp)-NH2, and six different concentrations of inhibitor. The incubation was performed at 37° C. for 60 minutes.
(§4) For MMP-2, the final assay concentrations of inhibitors used were 1000, 800, 600, 400, 200 and 100 nM. For MMP-3, the final assay concentrations of inhibitors used were 5, 4, 3, 2, 1 and 0.5 nM. For MMP-9 and MMP-14, the final assay concentrations of inhibitors used were 5, 4, 3, 2, 1 and 0.5 μM.
All assays were carried out in a black 96-well plate with a final volume of 100 μl in each well. Inhibitors were dissolved in dimethylsulphoxide (DMSO) to 1 mM. Solutions were then serially diluted in buffer to give the final concentrations shown. […]

[2] = molecular target: T1, catalytic domain human MMP-14 (Homo sapiens, UniProt P50281); assay: MMP-14 fluorogenic inhibition assay; settings: read-out: Calculated Ki(nM) MMP-14
T1 construct: made in house
Description: (§5) All enzymes were pre-activated at 37° C. with aminophenylmercuric acetate (APMA) or trypsin before being made up to the final concentrations used in the assay. MMP-1 (30 nM) was activated with 0.93 mM APMA for 20 minutes, MMP-2 (30 nM) was activated with 1.32 mM APMA for 1 hour, MMP-3 (1010 nM) was activated with 1.81 mM APMA for 3 hours or heat activated at 55° C. for three hours, MMP-9 (100 nM) was activated with 2 mM APMA for 2 hours, human MMP-13 (100 nM) was activated with 2 mM APMA for 2 hours, and MMP-14 (900 nM) was activated with 0.9 ng/ml trypsin for 25 minutes, followed by the addition of 4.5 ng/ml trypsin inhibitor.
as §2, with “35. For MMP-14, the assay buffer used was 50 mM Tris, 100 mM NaCl, 10 mM CaCl2, 0.25% (w/v) Brij 35, pH 7.5.” for “35.”
MMP-14 inhibition was assayed by incubating activated catalytic domain human MMP-14 at 1 nM in assay buffer with 10 μM Mca-Pro-Leu-Gly-Leu-Dpa-Ala-Arg-NH2 and six concentrations of inhibitor. The incubation was performed at 37° C. for 60 minutes.
as §4, with “The final assay concentrations of inhibitors used in the MMP-1 assays to determine Ki were 50, 40, 30, 20, 10 and 5 μM. For MMP-2,” for “For MMP-2,”
(§6) All assays were carried out in a black 96-well plate with a final volume of 100 μl in each well. Inhibitors were dissolved in dimethylsulphoxide (DMSO) to 1 mM. […] For MMP-2, MMP-3, MMP-9 and MMP-14, fluorescence was read every 2 minutes at […] and 393 nm γem for 1 hour using a Fluorostar fluorimeter (BMG) with BIOLISE software. For MMP-1 assays, the filters used were 355 nm γex and 440 nm γem; fluorescence was read every 2 minutes for 1 hour. […]

[3] = molecular target: T2, catalytic domain of human MMP-9 (Homo sapiens, UniProt P14780); assay: MMP-9 fluorogenic inhibition assay; settings: read-out: Calculated Ki(nM) MMP-9
T2 sequence (P14780 with tags, fused parts or gaps DEL216-390 limits assumed): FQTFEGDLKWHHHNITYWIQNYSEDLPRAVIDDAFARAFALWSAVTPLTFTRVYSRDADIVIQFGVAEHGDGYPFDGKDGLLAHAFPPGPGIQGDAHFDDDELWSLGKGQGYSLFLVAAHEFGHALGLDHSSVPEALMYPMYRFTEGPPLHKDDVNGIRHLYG
Description: as §5
as §2, with “35. For MMP-14, the assay buffer used was 50 mM Tris, 100 mM NaCl, 10 mM CaCl2, 0.25% (w/v) Brij 35, pH 7.5.” for “35.”
as §3
as §4, with “The final assay concentrations of inhibitors used in the MMP-1 assays to determine Ki were 50, 40, 30, 20, 10 and 5 μM. For MMP-2,” for “For MMP-2,”
as §6, with “well.” for “well. Inhibitors were dissolved in dimethylsulphoxide (DMSO) to 1 mM.”

[4] = molecular target: T3, catalytic domain human MMP-1 (Homo sapiens, UniProt P03956); assay: MMP-1 fluorogenic inhibition assay; settings: * limited by compound solubility; read-out: Calculated Ki(nM) MMP-1
T3 construct: made in house
T3 sequence (P03956 100-269 limits assumed): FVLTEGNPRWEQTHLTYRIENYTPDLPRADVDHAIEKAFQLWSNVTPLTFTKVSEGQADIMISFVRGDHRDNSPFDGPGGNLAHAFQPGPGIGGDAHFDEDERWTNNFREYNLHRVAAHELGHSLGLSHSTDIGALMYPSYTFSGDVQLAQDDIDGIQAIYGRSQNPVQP
Description: as §1, §2
The incubation was performed at 37° C. for 60 minutes.
as §4
All assays were carried out in a black 96-well plate with a final volume of 100 μl in each well. Inhibitors were dissolved in dimethylsulphoxide (DMSO) to 1 mM. Solutions were then serially diluted in buffer to give the final concentrations shown.
These were estimated using the following equation: IC50=(Ki*[…], where S is the substrate concentration and Km the Michaelis-Menton coefficient. Serine Protease Assays

catalytic domain of human MMP-2, sequence (P08253 with tags, fused parts or gaps DEL222-396 limits assumed): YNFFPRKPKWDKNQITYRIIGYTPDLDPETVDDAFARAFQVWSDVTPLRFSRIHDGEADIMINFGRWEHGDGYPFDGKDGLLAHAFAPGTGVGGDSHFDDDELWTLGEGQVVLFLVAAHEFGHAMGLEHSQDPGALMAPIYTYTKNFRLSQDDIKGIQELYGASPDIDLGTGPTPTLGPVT

Ki [1]: 35200 nM
Ki [2]: 35500 nM
Ki [3]: 52400 nM
Ki [4]: > 19400 nM
Compound: COC[C@@H](NC(=O)[C@@H](NC(=O)[C@H](CCCc1ccc(-c2cccc(OC)c2)c(C)c1)CC(=O)O)C(C)(C)C)c1ccccc1 [compound 9454, (3R)-3-({[(1S)-2,2-Dimethyl-1-({[(1S)-2-methoxy-1-phenylethyl]amino}carbonyl)propyl]amino}carbonyl)-6-(3′-methoxy-2-methylbiphen-4-yl)hexanoic acid]

Source: patent publication US20050026836A1, “Composition for the treatment of damaged tissue” (priority 1999, published 2005)
